Source: patent US10695296B2, “Formulations, methods, kit, and dosage forms for improved stability of an active pharmaceutical ingredient” (Asana BioSciences, LLC, priority 2017, dated 2020)
Several values for one entry are separate records, joined by “and”; a condition that tells them apart may be missing. Equal entries are not always repeated. Where two headings read alike, the source gives them in different places.

Assay: PK characteristics in humans (plasma, LC/MS/MS)
Type: in vivo, human
Details: for accumulation: cancer patients; for dose dependence of Cmax and AUC: 10-400 mg QD and 400 mg BID; for half-life: read-out: T1/2 (converted)
Description: A pharmaceutical formulation of the disclosure comprising the active ingredient N-(3-(2-(6-amino-4-(trifluoromethyl)pyridin-3-yl)-4-morpholinopyrido[3,2-d]pyrimidin-6-yl)-2-fluorophenyl)-3-fluoropropane-1-sulfonamide was evaluated for safety/tolerability and preliminary efficacy in eligible human subjects with advanced solid tumors, and the pharmacokinetic (PK) profile of the active ingredient was investigated for each subject. Eligibility criteria for inclusion in this study included:
Fifteen eligible patients were enrolled in total daily dose levels ranging from 10-800 mg per day of the active ingredient, provided as 10-mg, 20-mg, 80-mg and 120-mg tablets for oral administration. Dose escalation is ongoing. All study medication supplies were provided by Asana BioSciences, LLC (Bridgewater, N.J.). The tablets were administered orally every 12-24 hours on an empty stomach (either 1 hour before or 2 hours after a meal or snack) with approximately 240 mL of water. On study days in which there was a single plasma PK sample taken, the subject was instructed to fast for at least 2 hours prior to collection of the PK sample. On study days with multiple plasma PK samples taken, the subject was instructed to fast overnight (at least 8 hours prior to study drug administration) and remain fasting for 2 hours after study drug administration. The date and time of the dose(s) taken prior to or on PK sampling days were collected by the study site or catalogued via a diary card provided to the subject.
An ultra performance liquid chromatographic method was used for the determination of the active ingredient in human EDTA K2 plasma. This method was validated over an analytical range of 0.5 to 500 ng/mL. Calibration standards (CS) and quality control (QC) samples at three or four levels of concentrations were prepared fresh from the appropriate working solutions which were stored at −20° C. The human EDTA K2 plasma used for the preparation of CS and QC samples was obtained from Bioreclamation (Westbury, Pa., USA) and analyzed to determine possible interference with the analyte or the internal standard, and no significant interference was observed. The following parameters were used to determine analyte levels in the plasma samples: […]

[1] = Day 1, 40 mg, individual subjects
[2] = Day 1, 80 mg, individual subjects
[3] = Day 1, 240 mg, individual subjects
[4] = Day 1, 400 QD mg, individual subjects
[5] = Day 1, 400 bid mg, individual subjects
[6] = Day 15, 40 mg, individual subjects
[7] = Day 15, 80 mg, individual subjects
[8] = Day 15, 240 mg, individual subjects
[9] = Day 15, 400 QD mg, individual subjects
[10] = human subjects, listed as active ingredient

In the case of Nc1cc(C(F)(F)F)c(-c2nc(N3CCOCC3)c3nc(-c4cccc(NS(=O)(=O)CCCF)c4F)ccc3n2)cn1 [CMPD A, N-(3-(2-(6-amino-4-(trifluoromethyl)pyridin-3-yl)-4-morpholinopyrido[3,2-d]pyrimidin-6-yl)-2-fluorophenyl)-3-fluoropropane-1-sulfonamide], the accumulation (BID administration) was roughly 3 fold, the AUC0-24 [1] was 1400 ng·h/mL and 5510 ng·h/mL and the Cmax [1] was 96.2 ng/mL and 289 ng/mL. The T1/2 [1] was 17.6 h, the AUC0-24 [2] was 8090 ng·h/mL and 4010 ng·h/mL and the Cmax [2] was 300 ng/mL. The Tmax [2] was 24 h, the AUC0-24 [3] was 9560 ng·h/mL and 4300 ng·h/mL and the Cmax [3] was 744 ng/mL and 295 ng/mL. The T1/2 [3] was 23.9 h and 11.0 h, the AUC0-24 [4] was 3200 ng·h/mL and 26700 ng·h/mL and the Cmax [4] was 264 ng/mL and 1870 ng/mL. The T1/2 [4] was 15.6 h, the AUC0-24 [5] was 20400 ng·h/mL and the Cmax [5] was 1430 ng/mL. For the same compound, the T1/2 [5] was 15.0 h, the RAUCtau (Day 15, 10 mg, n=1) was 1.5 and the RCmax (Day 15, 10 mg, n=1) was 1.3. For the same compound, the RAUCtau (Day 15, 20 mg, n=1) was 2.1, the RCmax (Day 15, 20 mg, n=1) was 1.5 and the AUC0-24 [6] was 2580 ng·h/mL and 9190 ng·h/mL. For the same compound, the Cmax [6] was 173 ng/mL and 523 ng/mL, the RAUCtau [6] was 1.9 and 2.3 and the RCmax [6] was 1.8, 1.8. For the same compound, the T1/2 [6] was 22.5 h and 47.8 h, the AUC0-24 [7] was 21300 ng·h/mL and the Cmax [7] was 1179 ng/mL. For the same compound, the RAUCtau [7] was 2.4 and 5.3, the RCmax [7] was 2.0 and 4.0 and the Tmax [7] was 24 h. The RAUCtau (Day 15, 120 mg, n=3, range) was 1.2-1.9, the RCmax (Day 15, 120 mg, n=3, range) was 0.8-2.4 and the AUC0-24 [8] was 26000 ng·h/mL and 3740 ng·h/mL. For the same compound, the Cmax [8] was 1610 ng/mL and 299 ng/mL, the RAUCtau [8] was 2.7 and 0.9 and the RCmax [8] was 2.2 and 1.0. For the same compound, the T1/2 [8] was 29.0 h and 10.3 h, the Tmax [8] was “(2, 2) hr” and the AUC0-24 [9] was 41300 ng·h/mL. The Cmax [9] was 2930 ng/mL, the RAUCtau [9] was 8.0 and 1.55 and the RCmax [9] was 10.5 and 1.57. It also gave a T1/2 [9] of 11.7 h, a Tmax [9] of 1 h and an RAUCtau (Day 15, 400 bid mg, n=1) of 3.76. For the same compound, the RCmax (Day 15, 400 bid mg, n=1) was 2.53, the accumulation (QD administration) was roughly 2 fold and the “variability of pharmacokinetic parameters” value (human subjects) was “Moderate to high inter-and intra-subject variability”. For the same compound, the “dose dependence of Cmax and AUC” value (human subjects) was “Dose-dependent Cmax and AUC”, the “dose dependence of Cmax and AUC” value [10] was “generally dose-dependent Cmax and AUC” and the “accumulation in AUC at steady state” value (human subjects, oral tablets) was “approximately 2 fold”. The “t1/2 (rate of elimination)” value (human subjects, oral tablets) was “Moderate rate of elimination (t1/2 10-25 hours)”, the “variability of pharmacokinetic parameters” value [10] was “moderate inter-subject variability” and the AUC(0-t) (human, plasma, oral, 10 mg, Day 1, 10 mg, n=1, read-out: AUC0-24) was 622 ng·h/mL. It also gave a Cmax (human, plasma, oral, 10 mg, Day 1, 10 mg, n=1, read-out: Cmax) of 58 ng/mL, a half-life (human, plasma, oral, 10 mg, Day 1, 10 mg, n=1) of 16.1 h and a Tmax (human, plasma, oral, 10 mg, Day 1, 10 mg, n=1, read-out: Tmax) of 4 h. For the same compound, the AUC(0-t) (human, plasma, oral, 10 mg, Day 15, 10 mg, n=1, read-out: AUC0-24) was 912 ng·h/mL, the Cmax (human, plasma, oral, 10 mg, Day 15, 10 mg, n=1, read-out: Cmax) was 74 ng/mL and the Tmax (human, plasma, oral, 10 mg, Day 15, 10 mg, n=1, read-out: Tmax) was 4 h. For the same compound, the AUC(0-t) (human, plasma, oral, 10 mg, steady state, 10 QD mg, n=1, cancer patients, read-out: AUC0-24h) was 912 ng·h/mL, the Cmax (human, plasma, oral, 10 mg, steady state, 10 QD mg, n=1, cancer patients, read-out: Cmax) was 74 ng/mL and the Tmax (human, plasma, oral, 10 mg, steady state, 10 QD mg, n=1, cancer patients, read-out: Tmax) was 4 h. The AUC(0-t) (human, plasma, oral, 20 mg, Day 1, 20 mg, n=1, read-out: AUC0-24) was 1480 ng·h/mL, the Cmax (human, plasma, oral, 20 mg, Day 1, 20 mg, n=1, read-out: Cmax) was 101 ng/mL and the half-life (human, plasma, oral, 20 mg, Day 1, 20 mg, n=1) was 13.7 h. It also gave a Tmax (human, plasma, oral, 20 mg, Day 1, 20 mg, n=1, read-out: Tmax) of 8 h, an AUC(0-t) (human, plasma, oral, 20 mg, Day 15, 20 mg, n=1, read-out: AUC0-24) of 3160 ng·h/mL and a Cmax (human, plasma, oral, 20 mg, Day 15, 20 mg, n=1, read-out: Cmax) of 149 ng/mL. For the same compound, the half-life (human, plasma, oral, 20 mg, Day 15, 20 mg, n=1) was 127 h, the Tmax (human, plasma, oral, 20 mg, Day 15, 20 mg, n=1, read-out: Tmax) was 8 h and the AUC(0-t) (human, plasma, oral, 20 mg, steady state, 20 QD mg, n=1, cancer patients, read-out: AUC0-24h) was 3160 ng·h/mL. The Cmax (human, plasma, oral, 20 mg, steady state, 20 QD mg, n=1, cancer patients, read-out: Cmax) was 149 ng/mL, the Tmax (human, plasma, oral, 20 mg, steady state, 20 QD mg, n=1, cancer patients, read-out: Tmax) was 8 h and the half-life (human, plasma, oral, 40 mg, Day 1, 40 mg, individual subjects) was 18.2 h. It also gave an AUC(0-t) (human, plasma, oral, 40 mg, Day 1, 40 mg, n=2, mean, read-out: AUC0-24) of 2670 ng·h/mL, a Cmax (human, plasma, oral, 40 mg, Day 1, 40 mg, n=2, mean, read-out: Cmax) of 192 ng/mL and a half-life (human, plasma, oral, 40 mg, Day 1, 40 mg, n=2, mean) of 17.9 h. The Tmax (human, plasma, oral, 40 mg, Day 1, 40 mg, n=2, mean, read-out: Tmax) was 5 h, the Tmax (human, plasma, oral, 40 mg, Day 15, 40 mg, individual subjects, read-out: Tmax) was 4 h and the AUC(0-t) (human, plasma, oral, 40 mg, Day 15, 40 mg, n=2, mean, read-out: AUC0-24) was 5890 ng·h/mL.
